What was measured:
[1] = system: partial meniscectomy/ACL transection rat model of surgical induced osteoarthritis; assay: Morphological evaluation of the joint surfaces (osteophyte, gross surface, articular surface damage), Example 6; type: in vivo
Description: Morphological evaluation of the joint surfaces was performed using digital images of the joint. The parameters evaluated included percentage of articular surface damage of the proximal tibia calculated as the area of lesions divided by the total condylar surface area, gross surface score and osteophyte score as described (Yanagisawa et al. BMC Musculoskeletal Disorders. April 2016; 17:188).
The gross finding score in the articular cartilage was graded as follows: • (i) Grade 1—intact articular surface; • (ii) Grade 2—minimal osteophyte; • (iii) Grade 3—over spur formation; • (iv) Grade 4—width of erosion area 0 to 0.5 mm • (v) Grade 5—width of erosion area 0.5 to 1 mm. • (vi) Grade 6—width erosion area 1 to 1.5 mm • (vii) Grade 7—width of erosion area 1.5 to 2.0 mm • (viii) Grade 8—width of erosion area >2.0 mm
The osteophyte score was graded as follows: • (i) Grade 0—normal around the medial tibia; • (ii) Grade 1—osteophyte formation ⅓ around the medial tibia; • (iii) Grade 2—osteophyte formation halfway around the medial tibia; • (iv) Grade 3—osteophyte formation ⅔ around the medial tibia; • (v) Grade 4—osteophyte formation all around the medial tibia.

[2] = system: diet-induced obesity (DIO); assay: Diet-induced obese (DIO) mice on high-fat diet, metabolic profile; type: in vivo, C57Bl/6 mice
Text: The experimental protocol used was approved by the Institutional Animal Care and Use Committee of the Hebrew University, which is an AAALAC International accredited institute. Male 6-week-old C57Bl/6 mice were obtained from Harlan Laboratories. Mice were maintained under a 12-h light/dark cycle and fed ad libitum. To generate diet-induced obesity, the mice were fed either a high-fat diet (HFD) (60% of calories from fat, 20% from protein, and 20% from carbohydrates; Research Diet, D12492) or a standard laboratory diet (STD, 14% fat, 24% protein, 62% carbohydrates; NIH-31 rodent diet) for 14 weeks.
HFD-fed obese mice received vehicle (1% Tween80, 4% DMSO, 95% Saline) or CBDA-ME daily for 28 days by intraperitoneal (ip) injections of 40 mg/kg. Age-matched control mice on STD received vehicle daily. Body weight and food intake were monitored daily. Total body fat and lean masses were determined by EchoMRI-100H™ (Echo Medical Systems LLC, Houston, Tex., USA). 24 h urine was collected one week before euthanasia using mouse metabolic cages (CCS2000 Chiller System, Hatteras Instruments, NC, USA). At weeks 20, mice were euthanized by a cervical dislocation under deep anesthesia, the kidneys, liver, fat pads, and muscles were removed and weighed, and samples were either snap-frozen or fixed in buffered 4% formalin. Trunk blood was collected for determining the biochemical parameters.
The experimental protocol used Metabolic profile of the mice was assessed by using the Promethion High-Definition Behavioral Phenotyping System (Sable Instruments, Inc., Las Vegas, Nev., USA). Data acquisition and instrument control were performed using MetaScreen software version 2.2.18.0, and the obtained raw data were processed using ExpeData version 1.8.4 using an analysis script detailing all aspects of data transformation. Mice with free access to food and water were subjected to a standard 12 h light/12 h dark cycle, which consisted of a 48 h acclimation period followed by 24 h of sampling. Respiratory gases were measured by using the GA-3 gas analyzer (Sable Systems, Inc., Las Vegas, Nev., USA) using a pull-mode, negative-pressure system. Air flow was measured and controlled by FR-8 (Sable Systems, Inc., Las Vegas, Nev., USA), with a set flow rate of 2000 mL/min. Water vapor was continuously measured and its dilution effect on O2 and CO2 was mathematically compensated. Effective mass was calculated by [body mass]^0.75. Fat oxidation (FO) and carbohydrate oxidation (CHO) were calculated as FO=1.69×VO2−1.69×VCO2 and CHO=4.57×VCO2−3.23×VO2 and expressed as g/d/kg^eff.Mass.
Locomotor activity was quantified by the number of disruptions of infrared XYZ beam arrays with a beam spacing of 0.25 cm in the Promethion High-Definition Behavioral Phenotyping System (Sable Instruments, Inc., Las Vegas, Nev., USA).
Mice that fasted overnight were injected with glucose (1.5 g/kg, ip), followed by a tail blood collection at 0, 15, 30, 45, 60, 90, and 120 minutes. Blood glucose levels were determined using the Elite glucometer (Bayer, Pittsburgh, Pa.).
Serum and urine levels of creatinine as well as serum levels of cholesterol, triglycerides (TG), high-density lipoprotein (HDL), low-density lipoprotein (LDL), alanine aminotransferase (ALT), aspartate aminotransferase (AST), and alkaline phosphatase (ALP) were determined using the Cobas C-111 chemistry analyzer (Roche, Switzerland) […]. Creatinine clearance was calculated using urine and serum creatinine levels (CCr mL/h=Urine creatinine mg/dL×Urine volume/Serum creatinine mg/dL×24 hrs). Fasting blood glucose was measured using the Elite glucometer (Bayer, Pittsburgh, Pa.).
Liver tissues were extracted as described previously (Tam, J., et al., Cell Metab, 2012. 16(2): p. 167-79) and its triglyceride content was determined using the EnzyChrom™ Triglyceride Assay Kit (BioAssay Systems). […]

[3] = HFD mice, 40 mg/kg/d ip for 28 days
[4] = HFD mice, 40 mg/kg/d ip for 28 days (FIG. 30)
[5] = obesity related hepatocellular injury (FIG. 28)

C=C(C)[C@@H]1CCC(C)=CC1c1c(O)cc(CCCCC)c(C(=O)OC)c1O (stereo partly shown) [EPM-301, cannabidiolic acid methyl ester]
gross surface score ([1]; as compared to the HA and CS treated groups (FIG. 4)): improvement
percentage of articular surface damage ([1]; as compared to the HA and CS treated groups (FIG. 5)): less
osteophyte score ([1]; relative to the hyaluronic acid and the corticosteroid treatments (FIG. 3)): superiority
HDL-cholesterol [2, 3]: without changing
LDL-cholesterol [2, 3]: reduced
overweight (body weight) ([2]; HFD mice, 40 mg/kg/d ip for 28 days (FIG. 23A)): significantly reduced
adiposity (fat mass) ([2]; HFD mice, 40 mg/kg/d ip for 28 days (FIG. 23B)): significantly reduced
lean body mass ([2]; HFD mice, 40 mg/kg/d ip for 28 days (FIG. 23C)): without affecting
leptin levels ([2]; HFD mice, 40 mg/kg/d ip for 28 days (FIG. 23D)): reduction
total ambulatory activity ([2]; HFD mice, 40 mg/kg/d ip for 28 days (FIG. 25B)): without changing
HFD-induced hypertriglyceridemia (serum triglycerides) ([2]; HFD mice, 40 mg/kg/d ip for 28 days (FIG. 26A)): significantly reduced
HFD-induced hypercholesterinemia (serum cholesterol) ([2]; HFD mice, 40 mg/kg/d ip for 28 days (FIG. 26B)): significantly reduced
ratio between HDL to LDL ([2]; HFD mice, 40 mg/kg/d ip for 28 days (FIG. 26C)): Increased
fasting glucose levels ([2]; HFD mice, 40 mg/kg/d ip for 28 days (FIG. 27A)): no change
HFD-induced hepatic steatosis: elevated hepatic triglyceride levels ([2]; HFD mice, 40 mg/kg/d ip for 28 days (FIG. 29A)): completely attenuated
HFD-induced hepatic steatosis: increased fat vacuoles in the liver ([2]; HFD mice, 40 mg/kg/d ip for 28 days (FIG. 29B)): completely attenuated
HFD-induced kidney hypofiltration (creatinine clearance) [2, 4]: completely normalized
reduction in urine excretion-to-water consumption ratio [2, 4]: completely normalized
glucose intolerance (ip glucose tolerance test) ([2]; glucose 1.5 g/kg ip after overnight fast (FIG. 27B-27D)): significant reduction
utilization of fat (fat oxidation) ([2]; indirect calorimetry, similar to lean mice on STD (FIG. 24A)): downregulate
carbohydrate oxidation ([2]; indirect calorimetry, similar to lean mice on STD (FIG. 24B)): upregulate
serum levels of ALP [2, 5]: reduction
serum levels of ALT [2, 5]: reduction
serum levels of AST [2, 5]: reduction
ability to run on a wheel ([2]; similar to STD-fed animals (FIG. 25A)): increased ability

— patent publication US12403114B2, “Cannabinoid acid ester compositions and uses thereof” (EPM (IP), INC., priority 2019, dated 2025)
